Common to all, as to format: cell-based
In assay [1] the test system is NCI-H524 (ATCC) human small cell lung cancer cells. Here is the method:
SMDCs of the present invention were assessed in an in vitro assay evaluating the inhibition of cell proliferation. NCI-H524 (ATCC) human small cell lung cancer cells were plated in 96-well V-bottom plates (Costar) at a concentration of 5,000 cells/well. 24 h later, the cells were treated for 2 h with a SMDC. SMDC starting dose was 1 uM and two-fold serial dilutions were done for a total of 11 points. After 2 h of treatment, cells were spun down, and the drug-containing media was removed, and fresh complete media was added and used to resuspend the cells, which were spun again. After removal of the media, the cells were resuspended in complete medium and incubated for an additional 70 h. Cell proliferation was assessed using the CellTiter Glo Assay according to the standard protocol (Promega). Luminescence was measured using a TECAN plate reader. Percent proliferation inhibition was calculated using the following formula: % inhibition=(Luminescence Control−Luminescence Treatment)/Luminescence Control*100. IC50 curves were generated using the nonlinear regression analysis (four-parameter) with GraphPad Prism 9.

Assay [2] deals with T1, human somatostatin receptor subtype 2 (Homo sapiens, UniProt P30874).
T1 construct: expressed in transfected cells
Put plainly: Functional cAMP assay for SSTR2 agonists (HTRF) in CHO-K1 cells. The settings on record: CHO-K1 cells stably expressing human SST2, 20 min. An excerpt:
General overview: All five SSTR subtypes are Gi coupled G-protein coupled receptors (GPCRs) that lead to decreases in intracellular cyclic AMP (cAMP) when activated by an agonist. Therefore, measurement of intracellular cAMP levels can be used to assess whether compounds of the invention are agonists of SSTR subtypes (John Kelly, Troy Stevens, W. Joseph Thompson, and Roland Seifert, Current Protocols in Pharmacology, 2005, 2.2.1-2.2). One example of an intracellular cAMP assay is described below.
Functional Assay for SSTR2 Agonists
Four days prior to the assay, 2,000 Chinese hamster ovary cells (CHO-K1, ATCC #CCL-61) stably expressing the human somatostatin receptor subtype 2 are plated in each well of a 96-well tissue culture-treated plate in Ham's F12 growth media (ThermoFisher #10-080-CM) supplemented with 10% donor bovine serum (Gemini Bio-Products #100-506), 100 U/mL penicillin; 100 ug/mL streptomycin; 2 mM L-glutamine (Gemini Bio-Products #400-110) and 0.2 mg/mL hygromycin B (GoldBio #31282-04-9). The cells are cultured at 37° C., 5% CO2 and 95% humidity. cAMP is measured with HTRF dynamic cAMP assay (Cisbio, #62AM5PEJ) per manufacturer's instructions. On the day of the assay, the media is aspirated and the cells are treated with 50 μL of stimulation buffer supplemented with 10.2 mM 3-Isobutyl-1-methylxanthine (IBMX, Millipore Sigma #15879) and 1.6 μM NKH477 (Tocris #1603), plus various dilutions of SMDCs of the present invention. The cells are incubated for 20 minutes at 37° C. (the final concentration of the compounds of the invention are typically 0-10,000 nM). The cells are treated with 50 μL of lysis buffer (HRTF cAMP kit, Cisbio) and incubated at room temperature for 30 minutes with rotary shaking at 600 rpm, and then diluted with 150 μL of stimulation buffer and shaken for an additional five minutes at 300 rpm. The lysate is transferred to 384-well plates and incubated for 1-24 hours at room temperature, and cAMP accumulation is detected by d2-labeled cAMP and Anti-cAMP-Cryptate. The time-resolved fluorescent signal is read using a m1000 Pro (Tecan) or CLARIOStar (BMG Labtech) microplate reader, where the samples are excited with light at 340 nm and emission light is measured at 620 nm and 665 nm. The data is expressed as a calculation of the fluorescence ratio (665 nm/620 nm). The intracellular cAMP concentrations are calculated by regression to a standard curve and are plotted vs. the concentration of the compounds of the invention. The EC50 of the compounds are calculated using standard methods. All data manipulations are in GraphPad Prism v9 (GraphPad, San Diego, CA).

The next assay addresses T2, SST2 (Homo sapiens, UniProt P30874).
T2 construct: host or cells: PathHunter CHO-K1 SST2 cells
Put plainly: PathHunter CHO-K1 SST2 internalization assay. Particulars: PathHunter CHO-K1 SST2, 90 min. On the procedure:
SMDCs of the present invention were assessed in vitro using the human PathHunter CHO-K1 SST2 β-arrestin2 and PathHunter CHO-K1 SST2 Internalization Assays from DiscoverX. The CHO-K cells were seeded in 20 μLs of cell culture medium in a white-walled 384 well tissue culture-compatible plate at a density of 2500 cells/well. After a 48-hour incubation, cells were treated with 5 μLs of a 1:3 serially diluted SST2 SMDC prepared at 5× concentration with a final top compound concentration of 10 uM for 90 min at 37 C and in 5% CO2. 11 dilutions were tested as well as one treatment that was compound free. After incubation, the media containing treatments were discarded and 20 μL of a working solution of Beta-Glo from Promega Beta-Glo Assay System was added to each well. The plate was then incubated for 60 min at room temperature in the dark. Luminescence was measured using a Tecan plate reader. IC50 curves were generated using the nonlinear regression analysis (four-parameters) with GraphPad Prism 9. Results were the average of duplicates and are corrected for background.

Like-named read-outs stand apart in the source and are kept apart here.

T1 sequence (P30874 whole entry): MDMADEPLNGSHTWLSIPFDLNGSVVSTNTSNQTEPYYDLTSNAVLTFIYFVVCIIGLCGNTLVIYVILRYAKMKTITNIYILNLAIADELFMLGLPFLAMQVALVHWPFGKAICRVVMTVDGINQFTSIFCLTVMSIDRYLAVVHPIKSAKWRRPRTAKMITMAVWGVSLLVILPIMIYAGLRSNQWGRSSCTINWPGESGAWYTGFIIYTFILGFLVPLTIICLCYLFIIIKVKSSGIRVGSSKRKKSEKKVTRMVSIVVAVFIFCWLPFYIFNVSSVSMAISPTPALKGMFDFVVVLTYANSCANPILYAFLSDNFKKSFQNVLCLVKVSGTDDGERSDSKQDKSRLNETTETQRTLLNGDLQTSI
T2 sequence (P30874 whole entry): as above

`CCC(C)C(C(CC(=O)N1CCCC1C(OC)C(C)C(=O)NC(C)C(O)c1ccccc1)OC)N(C)C(=O)C(NC(=O)C(C(C)C)N(C)C(=O)OCc1ccc(NC(=O)[C@H](CCCNC(N)=O)NC(=O)[C@@H](NC(=O)CNC(=O)[C@H](Cc2ccccc2)NC(=O)CNC(=O)CNC(=O)CCOCCC(=O)NCCNc2ncc(-c3cc(C)cc(F)c3)c(N3CCC(N)CC3)c2-c2nc3ccc(Cl)cc3[nH]2)C(C)C)cc1)C(C)C` (stereo in doubt) [Compound 30]: the values for the concentration giving a half-maximal response (EC50) (in assay [1] (2 h); in assay [2] (read-out: hSST2 cAMP Avg EC50); at SST2 (read-out: Internalization EC50)) were 28.6 nM, 0.56 nM and 7.1 nM, respectively.
In the case of `CCC(C)C(C(CC(=O)N1CCCC1C(OC)C(C)C(=O)NC(C)C(O)c1ccccc1)OC)N(C)C(=O)C(NC(=O)C(C(C)C)N(C)C(=O)OCc1ccc(NC(=O)CNC(=O)[C@H](Cc2ccccc2)NC(=O)CNC(=O)CNC(=O)CCOCCC(=O)NCCNc2ncc(-c3cc(C)cc(F)c3)c(N3CCC(N)CC3)c2-c2nc3ccc(Cl)cc3[nH]2)cc1)C(C)C` (stereo in doubt) [Compound 35], the values for the EC50 (in assay [1] (2 h); in assay [2] (read-out: hSST2 cAMP Avg EC50); at SST2 (read-out: Internalization EC50)) were 17.4 nM, 0.58 nM and 6.1 nM, respectively.
Turning to `CCC(C)C(C(CC(=O)N1CCCC1C(OC)C(C)C(=O)NC(C)C(O)c1ccccc1)OC)N(C)C(=O)C(NC(=O)C(C(C)C)N(C)C(=O)OCc1ccc(NC(=O)[C@H](CCCNC(N)=O)NC(=O)[C@@H](NC(=O)CCOCCOCCOCCOCCOCCOCCC(=O)NCCNc2ncc(-c3cc(C)cc(F)c3)c(N3CCC(N)CC3)c2-c2nc3ccc(Cl)cc3[nH]2)C(C)C)cc1)C(C)C` (stereo in doubt) [Compound 40], the EC50 was 46.5 nM in assay [1] (2 h), 0.36 nM in assay [2] (read-out: hSST2 cAMP Avg EC50) and 26.4 nM at SST2 (read-out: Internalization EC50).
Consider `CCC(C)C(C(CC(=O)N1CCCC1C(OC)C(C)C(=O)NC(C)C(O)c1ccccc1)OC)N(C)C(=O)C(NC(=O)C(C(C)C)N(C)C(=O)OCc1ccc(NC(=O)[C@H](CCCNC(N)=O)NC(=O)[C@@H](NC(=O)CCOCCOCCOCCOCCC(=O)NCCNc2ncc(-c3cc(C)cc(F)c3)c(N3CCC(NC)CC3)c2-c2nc3ccc(Cl)cc3[nH]2)C(C)C)cc1)C(C)C` (stereo in doubt) [Compound 41], for which the EC50 is 27.8 nM in assay [1] (2 h), 0.48 nM in assay [2] (read-out: hSST2 cAMP Avg EC50) and 24.6 nM on SST2 (read-out: Internalization EC50).
For the compound `COc1cc2cc(c1Cl)N(C)C(=O)CC(OC(=O)[C@@H](C)N(C)C(=O)CCSC1CC(=O)N(CC3CCC(C(=O)NCCNc4ncc(-c5cc(C)cc(F)c5)c(N5CCC(N)CC5)c4-c4nc5ccc(Cl)cc5[nH]4)CC3)C1=O)[C@]1(C)OC1[C@@H](C)C1C[C@@](O)(NC(=O)O1)[C@H](OC)/C=C/C=C(\C)C2` (stereo partly drawn) [Compound 6], the EC50 in assay [1] (2 h) is 11.7 nM; in assay [2] (read-out: hSST2 cAMP Avg EC50), 0.22 nM; on SST2 (read-out: Internalization EC50), 5.3 nM.
Taken in the same sequence, the figures for `COc1cc2cc(c1Cl)N(C)C(=O)CC(OC(=O)[C@@H](C)N(C)C(=O)CCS[C@H]1CC(=O)N(CC3CCC(C(=O)NCCCC[C@H](N)C(=O)NCCNc4ncc(-c5cc(C)cc(F)c5)c(N5CCC(N)CC5)c4-c4nc5ccc(Cl)cc5[nH]4)CC3)C1=O)[C@]1(C)OC1[C@@H](C)C1C[C@@](O)(NC(=O)O1)[C@H](OC)/C=C/C=C(\C)C2` (stereo partly drawn) [Compound 7] were 355 nM, 0.15 nM and 21 nM.
Taken in the same sequence, the figures for `COc1cc2cc(c1Cl)N(C)C(=O)CC(OC(=O)[C@@H](C)N(C)C(=O)CCS[C@@H]1CC(=O)N(CC3CCC(C(=O)NCCCC[C@H](N)C(=O)NCCNc4ncc(-c5cc(C)cc(F)c5)c(N5CCC(N)CC5)c4-c4nc5ccc(Cl)cc5[nH]4)CC3)C1=O)[C@]1(C)OC1[C@@H](C)C1C[C@@](O)(NC(=O)O1)[C@H](OC)/C=C/C=C(\C)C2` (stereo partly drawn) [Compound 8] were 447 nM, 0.12 nM and 23.6 nM.
Take `COc1cc2cc(c1Cl)N(C)C(=O)CC(OC(=O)[C@@H](C)N(C)C(=O)CCSSCCNC(=O)CN1CCN(CC(=O)O)CCN(CC(=O)NCCNc3ncc(-c4cc(C)cc(F)c4)c(N4CCC(N)CC4)c3-c3nc4ccc(Cl)cc4[nH]3)CC1)[C@]1(C)OC1[C@@H](C)C1C[C@@](O)(NC(=O)O1)[C@H](OC)/C=C/C=C(\C)C2` (stereo partly drawn) [Compound 9]: the concentration giving a half-maximal response (EC50) in assay [1] (2 h) came out at 379 nM; in assay [2] (read-out: hSST2 cAMP Avg EC50) it was 0.13 nM; at SST2 (read-out: Internalization EC50), 7.7 nM.
As to `CCc1c2c(nc3ccc(OC(=O)NCCOCCOCCOCCOCCC(=O)NCCNc4ncc(-c5cc(C)cc(F)c5)c(N5CCC(N)CC5)c4-c4nc5ccc(Cl)cc5[nH]4)cc13)-c1cc3c(c(=O)n1C2)COC(=O)[C@]3(O)CC` [Compound 10, (19S)-10,19-diethyl-19-hydroxy-14,18-dioxo-17-oxa-3,13-diazapentacyclo[11.8.0.0^2,^11.0^4,^9.0^15,^20]henicosa-1(21),2,4(9),5,7,10,15(20)-heptaen-7-yl N-{14-[(2-{[4-(4-aminopiperidin-1-yl)-3-(6-chloro-1H-1,3-benzodiazol-2-yl)-5-(3-fluoro-5-methylphenyl)pyridin-2-yl]amino}ethyl)carbamoyl]-3,6,9,12-tetraoxatetradecan-1-yl}carbamate], the 50% effective concentration (EC50) in assay [1] (2 h treatment, washout, additional 70 h, read-out: H524 EC50) is 17.4 nM; in assay [2] (hSST2 cAMP Avg EC50 (nM)), 0.44 nM; at SST2 (Internalization EC50 (nM)), 3.15 nM.
As to `CC[C@H](C)[C@@H]([C@@H](CC(=O)N1CCC[C@H]1[C@H](OC)[C@@H](C)C(=O)N[C@@H](Cc1ccccc1)C(=O)O)OC)N(C)C(=O)[C@@H](NC(=O)[C@H](C(C)C)N(C)C(=O)CCOCCOCCOCCOCCC(=O)NCCNc1ncc(-c2cc(C)cc(F)c2)c(N2CCC(N)CC2)c1-c1nc2ccc(Cl)cc2[nH]1)C(C)C` [Compound 11], the EC50 was 105 nM in assay [1] (2 h), 0.086 nM in assay [2] (read-out: hSST2 cAMP Avg EC50) and 13.4 nM at SST2 (read-out: Internalization EC50).
As to `COc1cc2cc(c1Cl)N(C)C(=O)CC(OC(=O)[C@@H](C)N(C)C(=O)CCSSCCNC(=O)CNC(=O)C[C@@H](N)C(=O)NCCNc1ncc(-c3cc(C)cc(F)c3)c(N3CCC(N)CC3)c1-c1nc3ccc(Cl)cc3[nH]1)[C@]1(C)OC1[C@@H](C)C1C[C@@](O)(NC(=O)O1)[C@H](OC)/C=C/C=C(\C)C2` (stereo partly drawn) [Compound 13], the half-maximal effective concentration (EC50) in assay [1] (2 h) stood at 41.8 nM; in assay [2] (read-out: hSST2 cAMP Avg EC50), 0.075 nM; at SST2 (read-out: Internalization EC50), 6.3 nM.

The record behind these values is patent US12134610B2, “Somatostatin subtype-2 receptor (SST2R) targeted therapeutics and uses thereof” (priority 2022, dated 2024).
